≈ marks a conversion by molar mass, not a printed value.
Legend:
[1] = Dynamic vapor sorption (moisture uptake); assay type: physicochemical; details: 25° C.
Experimental: Dynamic Vapor Sorption (DVS) was carried out using a TA Instruments Q5000 Dynamic Vapor Sorption analyzer. The instrument was calibrated with standard weights and a sodium bromide standard for humidity. Approximately 10-25 mg of sample was loaded into a metal-coated quartz pan for analysis. […] The movement from one step to the next occurred either after satisfying the equilibrium criterion of 0.01% weight change or, if the equilibrium criterion was not met, after one hour. The percent weight change values were calculated using Microsoft Excel®.

[2] = Pharmacokinetics / absolute bioavailability in male Sprague Dawley rats; assay type: in vivo; details: for AUC(0-inf): rat; for AUC(0-inf) / AUCinf: plasma
Experimental: Twenty-one (21) male Sprague Dawley rats (purchased from Shanghai Laboratory Animal Center Co., Ltd., Shanghai, China) were randomized into 7 groups (3 animals per group). The animals fasted overnight, the forms of Compound 1 shown in Table 7 were administered by oral gavage, and the animals were fed 4 hours post-dose.
Blood was serially collected from each animal at 0 (pre-dose), 0.083, 0.25, 0.5, 1, 2, 4, 8, and 24 h post-dose. For each collection, the animal was restrained manually, and approximately 150 μL of blood sample was collected via the tail vein into K2EDTA tubes. Plasma samples were stored at approximately −70° C. until analysis.
To enable the calculation of absolute bioavailability, Compound 1 was formulated as a solution in 10% N-methyl-2-pyrrolidone, 10% Solutol HS 15, and 80% saline and administered at 1 mg/kg as intravenous (IV) bolus dose to a separate group of male Sprague Dawley rats, and blood samples were collected at similar timepoints to those shown above. Further, plasma samples were obtained from the collected samples and stored at approximately −70° C. until analysis.
The concentration of Compound 1 in the plasma samples was determined by LC-MS/MS analysis.
A 20 μL aliquot of each plasma sample was mixed with 200 μL of acetonitrile containing glipizide as an internal standard (40 ng/mL). The resulting mixture was vortexed at 1500 rpm for 2 min and centrifuged at 5800 rpm for 10 min. A 1 μL sample from the supernatant was injected into LC-MS/MS.
LC-MS/MS analysis was conducted on a UPLC/MS-MS (API 6500+) system under the conditions outlined in Table 8
The absolute bioavailability of each form of Compound 1 was determined by dividing the AUCinf of the form in question by the AUCinf obtained historical data by IV administration of Compound 1.

pH solubility in buffers = assay type: physicochemical; details: for pH (24 h): pH of solution at 24 h; for solubility / solubility at 2 h: 37 °C
Experimental: (§1) Solubility samples were prepared by weighing about 10 mg of each salt and adding 1 mL of media and vortexed briefly to obtain suspensions. […] For such instances, the solubility is calculated as greater than (>).
(§2) The sample vials were capped and wrapped in aluminum foil, and placed on a shaker at 37° C. The shaker was set at about 100 rpm and vials were removed at specified time points. The vials were observed, and the supernatants were transferred to Eppendorf tubes and centrifuged at 3K for 10 minutes. The clear supernatants were transferred to HPLC vials. The samples were diluted prior to HPLC analysis using the dilution media by 2× or used without dilution. pH was measured of the 24 hour timepoint after centrifugation using a micro pH probe.
(§3) • pH 2 buffer USP: Mixed 50 mL of 0.2M potassium chloride and 13 mL 0.2M HCl, diluted to 200 mL with water. • pH 4.5 buffer USP: 5.44 g of potassium dihydrogen phosphate was diluted to 1000 mL with water. • pH 6.8 buffer USP: Mixed 50 mL of 0.2M potassium phosphate and 22.4 mL 0.2M sodium hydroxide. Diluted with water to 200 mL. • SGF: 2.0109 g of NaCl was dissolved in water, added 7 mL of conc. HCl and diluted to 1 L. • FeSSIF: 4.0321 g of NaOH and 11.8726 g of NaCl were dissolved in water, added 8.65 mL of glacial acetic acid, adjusted the pH to 5.0 and diluted to 1 L. • FaSSIF: 0.4247 g of NaOH, 3.9548 g of sodium phosphate monobasic monohydrate and 6.1900 g of NaCl were dissolved in water, adjusted the pH to 6.5 and diluted to 1 L.
(§4) At each time point, the solution was analyzed by HPLC and residue was vacuum dried and analyzed by XRPD. The pH of the solution was measured at 24 hours.

[3] = Kinetic solubility in biorelevant media; assay type: physicochemical
Experimental: as §1, §2
as §3, with “adjusted the pH to 5.0 and diluted to 1 L. • FaSSIF:” left out
(§5) Kinetic solubility was determined in biorelevant media. At each time point, the solution was analyzed by HPLC. The solid residue was analyzed by XRPD at selected time points. The pH of the solution was measured at 24 hours.

[4] = XRPD of solid residue from solubility samples (salt disproportionation); assay type: physicochemical; details: FaSSIF residue
Experimental: as §4, §5

[5] = from 2% to 95% relative humidity
[6] = from 5% to 95% relative humidity

## Cn1c2nc(Cc3cc[nH]n3)sc2c2cnn(Cc3cccc(N)n3)c(=O)c21 [Form D-2]
[1]; [5]
  moisture uptake (DVS): about 1.1%

## Cn1c2nc(Cc3cc[nH]n3)sc2c2cnn(Cc3cccc(N)n3)c(=O)c21 [Compound 1, 2-((1H-pyrazol-3-yl)methyl)-6-((6-aminopyridin-2-yl)methyl)-4-methyl-4,6-dihydro-5H-thiazolo[5′,4′:4,5]pyrrolo[2,3-d]pyridazin-5-one]
[2]; IV administration (historical), 1 mg/kg, reference
  Absolute % F: 100%
[2]; iv, 1 mg/kg, IV bolus (historical)
  AUC(0-inf): 1560 ng·h/mL

## Cn1c2nc(Cc3cc[nH]n3)sc2c2cnn(Cc3cccc(N)n3)c(=O)c21 [Form B]
pH solubility in buffers; 0.1N HCl
  dissolution in 0.1N HCl: dissolved instantly
pH solubility in buffers; 0.1 N HCl
  pH (24 h): 1.44
pH solubility in buffers; 0.1 n hcl, dissolved instantly, estimated by adding 100 uL aliquots, read-out: solubility
  solubility: > 16700 µg/mL
pH solubility in buffers; pH 2 (USP), 2 h, 120 min
  solubility: 2590 µg/mL (≈ 6600 µM)
pH solubility in buffers; pH 2 (USP), 24 h, 1440 min
  solubility: 2400 µg/mL (≈ 6120 µM)
pH solubility in buffers; pH 2 (USP)
  pH (24 h): 2.26
pH solubility in buffers; pH 4.5 (USP), 24 h, 1440 min
  solubility: 270 µg/mL (≈ 688 µM)
pH solubility in buffers; pH 4.5 (USP)
  pH (24 h): 4.01
pH solubility in buffers; pH 6.8 (USP), 24 h, 1440 min
  solubility: 10 µg/mL (≈ 25.5 µM)
pH solubility in buffers; pH 6.8 (USP)
  pH (24 h): 5.09
pH solubility in buffers; ph 4.5 buffer (usp), pH 4.5, pH 4.5 (USP), 2 h
  solubility at 2 h: 70 µg/mL (≈ 178 µM)
pH solubility in buffers; ph 6.8 buffer (usp), pH 6.8, pH 6.8 (USP), 2 h
  solubility at 2 h: 30 µg/mL (≈ 76.4 µM)
[3]; FaSSIF pH 6.5, 10 min, 37 °C, 10 min
  solubility: 0.38 (suspect) mg/mL
[3]; FaSSIF pH 6.5, 30 min, 37 °C, 30 min
  solubility: 0.36 (suspect) mg/mL
[3]; FaSSIF pH 6.5, 1 h, 37 °C, 60 min
  solubility: 0.24 mg/mL (≈ 612 µM)
[3]; FaSSIF pH 6.5, 2 h, 37 °C, 120 min
  solubility: 0.57 mg/mL (≈ 1450 µM)
[3]; FaSSIF pH 6.5, 4 h, 37 °C, 240 min
  solubility: 1.40 (suspect) mg/mL
[3]; FaSSIF pH 6.5, 24 h, 37 °C, 1440 min
  solubility: 0.70 mg/mL (≈ 1780 µM)
[3]; FaSSIF pH 6.5, pH of solution at 24 h
  pH (24 h): 3.39
[3]; FeSSIF pH 5.0, 1 h, 37 °C, 60 min
  solubility: 0.08 mg/mL (≈ 204 µM)
[3]; FeSSIF pH 5.0, pH of solution at 24 h
  pH (24 h): 4.79
[3]; SGF pH 1.2, pH of solution at 24 h
  pH (24 h): 1.0
[3]; fessif, pH 5, FeSSIF pH 5.0, 10 min, 37 °C
  solubility at 10 min: 340 µg/mL (≈ 866 µM)
[3]; fessif, pH 5, FeSSIF pH 5.0, 30 min, 37 °C
  solubility at 0.5 h: 130 µg/mL (≈ 331 µM)
[3]; fessif, pH 5, FeSSIF pH 5.0, 2 h, 37 °C
  solubility at 2 h: 110 µg/mL (≈ 280 µM)
[3]; fessif, pH 5, FeSSIF pH 5.0, 4 h, 37 °C
  solubility at 4 h: 100 µg/mL (≈ 255 µM)
[3]; fessif, pH 5, FeSSIF pH 5.0, 24 h, 37 °C
  solubility at 24 h: 60 µg/mL (≈ 153 µM)
[3]; sgf, pH 1.2, SGF pH 1.2, 37 °C, dissolved instantly, from total volume of media added, read-out: solubility
  solubility: > 10 mg/mL
[3]; simulated gastric fluid (SGF)
  dissolution in SGF: dissolved instantly
[4]
  salt disproportionation by XRPD: some salt remained
[2]; oral gavage, 10 mg/kg
  absolute bioavailability, comparison with other forms: higher than the measured bioavailability of the other forms of Compound 1
[2]; oral gavage, 10 mg/kg, fasted overnight
  AUCinf: 10846 ng·h/mL
[2]; oral gavage, 10 mg/kg, vs historical IV AUCinf, 10 mg/kg
  Absolute % F: 70%
[1]; [6]
  moisture uptake (DVS): about 0.9%

## Cn1c2nc(Cc3cc[nH]n3)sc2c2cnn(Cc3cccc(N)n3)c(=O)c21 [Form D-1]
[1]; [6]
  moisture uptake (DVS): about 2.8%

## Cn1c2nc(Cc3cc[nH]n3)sc2c2cnn(Cc3cccc(N)n3)c(=O)c21 [Form E]
[2]; oral gavage, 10 mg/kg, fasted overnight, listed as Free Base Hydrate Form E (wet milled)
  AUCinf: 7378 ng·h/mL
[2]; oral gavage, 10 mg/kg, vs historical IV AUCinf, listed as Free Base Hydrate Form E (Unmilled), 10 mg/kg
  Absolute % F: 45%
[2]; oral gavage, 10 mg/kg, vs historical IV AUCinf, listed as Free Base Hydrate Form E (wet milled), 10 mg/kg
  Absolute % F: 47%
[2]; po, 10 mg/kg, oral gavage, fasted overnight
  AUC(0-inf): 6960 ng·h/mL
[1]; [6]
  moisture uptake (DVS): about 1.3%

## Cn1c2nc(Cc3cc[nH]n3)sc2c2cnn(Cc3cccc(N)n3)c(=O)c21.O=C(O)C(O)C(O)C(=O)O [Form I]
[1]; [5]
  moisture uptake (DVS): about 10.5%
